Experimental data published in the supplement of paper PMC10307832.

Assays:
Assay in all cases: relative viability (nuclei count vs DMSO), 5 days (fraction); higher = more cells survive
[1] = compound: O=C(c1cc(Cc2n[nH]c(=O)c3ccccc23)ccc1F)N1CCN(C(=O)C2CC2)CC1 [Olaparib] + Nc1nc2[nH]cc(CCc3ccc(C(=O)N[C@@H](CCC(=O)O)C(=O)O)cc3)c2c(=O)[nH]1 [Pemetrexed] (partner 0.2 µM)
Procedure, shortened: (§1)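 A single step with final 0.05% Triton X-100, 1% formaldehyde and 1 ug/ml Hoechst fixed the cells and stained nuclei 5 days after treatment. Lung cancer cell lines in 1536-well plates had been treated by pin tool the day after seeding with one drug alone or a fixed anchor-drug dose plus five library-drug doses (not always all listed) in √10 steps, and nuclei were counted on 4× images. Relative viability is the ratio of nuclei in treated wells to nuclei in vehicle wells, taken as the median of duplicate plates.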

[2] = compound: C[C@@H](Oc1cc(-c2cnn(C3CCNCC3)c2)cnc1N)c1c(Cl)ccc(F)c1Cl [Crizotinib] + CC(=O)c1c(C)c2cnc(Nc3ccc(N4CCNCC4)cn3)nc2n(C2CCCC2)c1=O [Palbociclib] (partner 0.5 µM)
Procedure, shortened: as §1

[3] = compound: C[C@@H](Oc1cc(-c2cnn(C3CCNCC3)c2)cnc1N)c1c(Cl)ccc(F)c1Cl [Crizotinib] + Nc1nc2[nH]cc(CCc3ccc(C(=O)N[C@@H](CCC(=O)O)C(=O)O)cc3)c2c(=O)[nH]1 [Pemetrexed] (partner 0.2 µM)
Procedure, shortened: as §1

[4] = compound: CC(C)C[C@H](NC(=O)[C@H](CCc1ccccc1)NC(=O)CN1CCOCC1)C(=O)N[C@@H](Cc1ccccc1)C(=O)N[C@@H](CC(C)C)C(=O)[C@@]1(C)CO1 [Carfilzomib] + Cc1nc(NC(=O)N2CCC[C@H]2C(N)=O)sc1-c1ccnc(C(C)(C)C(F)(F)F)c1 [Alpelisib] (partner 2 µM)
Procedure, shortened: as §1

| Cell Line | relative viability ([1]; first compound 0.08 µM) | relative viability ([1]; first compound 0.253 µM) | relative viability ([1]; first compound 2.53 µM) | relative viability ([1]; first compound 8 µM) | relative viability ([2]; first compound 0.01 µM) | relative viability ([2]; first compound 0.03162 µM) | relative viability ([2]; first compound 0.1 µM) | relative viability ([2]; first compound 0.3162 µM) | relative viability ([2]; first compound 1 µM) | relative viability ([3]; first compound 0.01 µM) | relative viability ([3]; first compound 0.03162 µM) | relative viability ([3]; first compound 0.1 µM) | relative viability ([3]; first compound 0.3162 µM) | relative viability ([3]; first compound 1 µM) | relative viability ([4]; first compound 0.001 µM) | relative viability ([4]; first compound 0.003162 µM) | relative viability ([4]; first compound 0.01 µM) | relative viability ([4]; first compound 0.03162 µM) | relative viability ([4]; first compound 0.1 µM) |
| --- | --- | --- | --- | --- | --- | --- | --- | --- | --- | --- | --- | --- | --- | --- | --- | --- | --- | --- | --- |
| ChaGo-K-1 | 0.266 | 0.258 | 0.261 | 0.256 | 0.917 | 0.92 | 0.971 | 0.908 | 0.98 | 0.253 | 0.249 | 0.253 | 0.241 | 0.261 | – | – | – | – | – |
| EBC-1 | – | – | – | – | – | – | – | – | – | – | – | – | – | – | 0.7 | 0.792 | 0.259 | 0.112 | 0.13 |
| EKVX | 0.425 | 0.401 | 0.418 | 0.365 | 0.312 | 0.411 | 0.38 | 0.392 | 0.423 | 0.362 | 0.414 | 0.404 | 0.383 | 0.327 | 0.845 | 1.06 | 0.953 | 0.837 | 0.363 |
| EMC-BAC-2 | 0.473 | 0.478 | 0.472 | 0.491 | 0.507 | 0.509 | 0.519 | – | 0.479 | 0.442 | 0.419 | 0.444 | – | 0.448 | 0.699 | 0.733 | 0.757 | 0.758 | 0.326 |
| EPLC-272H | 0.316 | 0.312 | 0.345 | 0.357 | 0.334 | 0.298 | 0.31 | – | 0.309 | 0.298 | 0.355 | 0.397 | 0.37 | 0.402 | 0.884 | 1.03 | 0.83 | 0.141 | 0.106 |
| H3255 | 0.598 | 0.58 | 0.577 | 0.597 | 0.342 | 0.331 | 0.327 | 0.28 | 0.325 | 0.556 | 0.553 | 0.592 | 0.54 | 0.557 | 0.749 | 0.886 | 0.723 | 0.494 | 0.154 |
| HARA | 0.274 | 0.251 | 0.272 | 0.232 | 0.273 | 0.295 | 0.239 | 0.249 | 0.207 | 0.222 | 0.242 | 0.257 | 0.183 | 0.236 | 0.79 | 0.857 | 1.07 | 0.0576 | 0.0587 |
| HCC-15 | 0.215 | 0.224 | 0.209 | 0.221 | 0.665 | 0.719 | 0.7 | 0.655 | 0.627 | 0.234 | 0.222 | 0.233 | 0.209 | 0.213 | 0.855 | 0.914 | 0.86 | 0.506 | 0.0942 |
